Counter-ions that a name gives are not always drawn.
Legend:
[1] = Compound was evaluated for its binding affinity against Opioid receptor delta 1 subtype in guinea pig brain (minus cerebellum) using [3H]DADLE as radioligand.
[2] = Compound was evaluated for its binding affinity against opioid receptor delta subtype in guinea pig brain (minus cerebellum) using [3H]-DADLE as radioligand.

Row | SMILES | Ki [1] [µM] | Ki [2] [µM]
1 | O=C(Cc1ccc(Cl)c(Cl)c1)N1CCCCC1CN1CCCC1 (stereo not drawn) | > 10 | –
2 | CN1CCCC1C1CCCCN1C(=O)Cc1ccc(Cl)c(Cl)c1 (stereo not drawn) [(threo)2-(3,4-Dichloro-phenyl)-1-[2-(1-methyl-pyrrolidin-2-yl)-piperidin-1-yl]-ethanone(HCl)] | – | > 10
3 | O=C(Cc1ccc(O)cc1)N1CCCCC1CN1CCCC1 (stereo not drawn) | – | > 10

Reference: BindingDB's records for doi:10.1021/jm00105a061 (Zambeletti Research Laboratories, 1991)
